Laboratory results from US7932253B2, “Immunomodulating oxopyrrazolocinnolines as CD80 inhibitors” (MediGene AG, priority 2004, dated 2011).

Legend:
CD80-CD28 interaction = target: T1, CD80-CD28 interaction (Homo sapiens, UniProt P33681); experiment: Homogeneous time resolved fluorescence (TR-Fret) assay, cell free; format: biochemical; details: inhibition of the CD80-CD28 interaction; 4 hours at room temperature
T1 construct: mouse Fab fragment (fusion partner)
T1 sequence (P33681 35-242 limits assumed): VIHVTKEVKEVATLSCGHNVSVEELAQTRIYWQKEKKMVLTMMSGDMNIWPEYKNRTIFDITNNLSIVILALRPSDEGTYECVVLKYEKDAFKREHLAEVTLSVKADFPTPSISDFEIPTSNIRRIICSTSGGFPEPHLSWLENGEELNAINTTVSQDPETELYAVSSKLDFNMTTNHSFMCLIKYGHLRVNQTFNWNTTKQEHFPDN
Method: The compound was tested in a cell free homogenous time resolved fluorescence (HT-Fret) assay to determine their activity as an inhibitor of the CD80-CD28 interaction.
In the assay, europium and allophycocyanin (APC) are associated with CD28 and CD80 indirectly (through antibody linkers) to form a complex, which brings the europium and APC into close proximity to generate a signal. The complex comprises the following six proteins: fluorescent label 1, linker antibody 1, CD28 fusion protein, CD80 fusion protein, linker antibody 2, and fluorescent label 2. The table below describes these reagents in greater detail.
On formation of the complex, europium and APC are brought into proximity and a signal is generated.
Non-specific interaction was measured by substituting a mouse Fab fragment (C215) for the CD80 mouse Fab fragment fusion protein (1.9 μg/ml). The assay was carried out in black 384 well plates in a final volume of 30 μl. Assay buffer: 50 mM Tris-HCl, 150 mM NaCl pH7.8, containing 0.1% BSA (w/v) added just prior to use.
Compounds were added to the above reagents in a concentration series ranging between 100 μM-1.7 nM. The reaction was incubated for 4 hours at room temperature. Dual measurements were made using a Wallac Victor 1420 Multilabel Counter. […] Counts were automatically corrected for fluorescence crossover, quenching and background.

[1] = target: T2, Biotinylated human CD80 (hCD80-BT) (Homo sapiens, UniProt P33681); experiment: BIAcore biomolecular interaction assay; format: binding; details: hCD80-BT immobilised on streptavidin-coated sensor chip; compound 1000 nM-0.05 nM
T2 construct: biotin (biotinylation)
T2 sequence (P33681 35-242 limits assumed): T1 sequence (P33681 35-242 limits assumed)
From the text: Biotinylated human CD80 (hCD80-BT) is a recombinant soluble form of a membrane bound receptor molecule (CD80) which binds to CD28 to initiate T cell activation. The interaction between CD80 and CD28 has been extensively investigated (Collins et al, 2002). Biotinlyated human HLA-A2-tax is the recombinant soluble form of a membrane bound receptor molecule used as a control protein, and is not expected to interact with the compound.
The BIAcore S51™ system was used for screening the compounds of Examples 1-4 above. A series S sensor chip CM5 was docked onto the BIAcore S51™. Streptavidin was coupled to the carboxymethyl surface using standard amine coupling. The chip surface was activated with 0.2M EDC/0.05M NHS, followed by binding of streptavidin (0.25 mg/ml in 10 mM sodium acetate pH 5.0) and saturation of unoccupied sites with […].
The BIAcore S51 sensor chip has two separate sensor spots for immobilisation of proteins. hCD80-BT was immobilised on the streptavidin-coated surface of one sensor spot until a response of approximately 3000 RU was observed. A protein to control for non-specific binding of the compound was immobilised on a second sensor spot. […]
BIAcore S51™ was run at a flow rate of 30 μl/min using running buffer. […] Data were recorded automatically and were analysed using BIAcore S51 Evaluation software.

O=C(N[C@H]1CN2CCC1CC2)c1ccc(-n2[nH]c3c(nnc4c(F)ccc(F)c43)c2=O)cc1 [The compound, (R)—N-(1-Aza-bicyclo[2.2.2]oct-3-yl)-4-(6,9-difluoro-3-oxo-1,3-dihydro-pyrazolo[4,3-c]cinnolin-2-yl)-benzamide]
EC50 (CD80-CD28 interaction): 820 pM | Kd [1]: 350 pM
